Assay results taken from ChEMBL document CHEMBL1201862, “PubChem BioAssay data set” (2004).
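Cultured in 96-well plates, cells were exposed to test compound for 48 hours across five concentrations. Abbreviation: GI50, concentration required for 50% inhibition of growth.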 The source made the active and inactive calls. Cut-off read from the data, not from the text of the source: active = GI50 up to about 1.1 µM and inactive = higher.

Assays:
Experiment in all cases: DTP human tumour cell line panel, 48 h
BT-549 = system: BT-549
COLO 205 = system: COLO 205
HCC 2998 = system: HCC 2998
HCT-116 = system: HCT-116
HOP-92 = system: HOP-92
IGROV-1 = system: IGROV-1
KM12 = system: KM12
M14 = system: M14
MCF7 = system: MCF7
MDA-MB-231 = system: MDA-MB-231
Malme-3M = system: Malme-3M
NCI/ADR-RES = system: NCI/ADR-RES
OVCAR-3 = system: OVCAR-3
SF-295 = system: SF-295
SN12C = system: SN12C
UO-31 = system: UO-31
DU-145 = system: DU-145
NCI-H522 = system: NCI-H522
RPMI-8226 = system: RPMI-8226
SF-268 = system: SF-268

Structure (SMILES)	GI50 (BT-549)	GI50 (COLO 205)	GI50 (HCC 2998)	GI50 (HCT-116)	GI50 (HOP-92)	GI50 (IGROV-1)	GI50 (KM12)	GI50 (M14)	GI50 (MCF7)	GI50 (MDA-MB-231)	GI50 (Malme-3M)	GI50 (NCI/ADR-RES)	GI50 (OVCAR-3)	GI50 (SF-295)	GI50 (SN12C)	GI50 (UO-31)	GI50 (DU-145)	GI50 (NCI-H522)	GI50 (RPMI-8226)	GI50 (SF-268)
N/C(S)=N/N=C/c1ncccc1O	3.47 µM (inactive)	2.83 µM (inactive)	9.08 µM (inactive)	1.76 µM (inactive)	0.52 µM (active)	1.55 µM (inactive)	2.6 µM (inactive)	1.95 µM (inactive)	0.723 µM (active)	4.29 µM (inactive)	1.95 µM (inactive)	0.757 µM (active)	1.88 µM (inactive)	0.766 µM (active)	0.964 µM (active)	0.701 µM (active)	–	–	–	–
O=c1[nH]c(=O)n(COC(CO)CO)cc1-c1ccccc1	–	> 100 µM (inactive)	> 100 µM (inactive)	> 100 µM (inactive)	> 100 µM (inactive)	> 100 µM (inactive)	> 100 µM (inactive)	> 100 µM (inactive)	> 100 µM (inactive)	> 100 µM (inactive)	> 100 µM (inactive)	> 100 µM (inactive)	> 100 µM (inactive)	> 100 µM (inactive)	> 100 µM (inactive)	> 100 µM (inactive)	> 100 µM (inactive)	> 100 µM (inactive)	> 100 µM (inactive)	> 100 µM (inactive)
O=C(NCc1cccc2ccccc12)N/N=C\c1ccc(Cl)cc1	> 100 µM (inactive)	> 100 µM (inactive)	57.7 µM (inactive)	> 100 µM (inactive)	74.8 µM (inactive)	> 100 µM (inactive)	49 µM (inactive)	74.5 µM (inactive)	43.3 µM (inactive)	–	> 100 µM (inactive)	> 100 µM (inactive)	> 100 µM (inactive)	53.5 µM (inactive)	> 100 µM (inactive)	> 100 µM (inactive)	> 100 µM (inactive)	36.6 µM (inactive)	77.1 µM (inactive)	93.8 µM (inactive)
CCOC(=O)c1sc2[n+](c1C)C(=O)/C(=C/c1ccccc1Cl)S2	–	3.13 µM (inactive)	1.7 µM (inactive)	0.627 µM (active)	5.9 µM (inactive)	1.84 µM (inactive)	0.425 µM (active)	2.2 µM (inactive)	3.11 µM (inactive)	3.06 µM (inactive)	11 µM (inactive)	0.342 µM (active)	0.891 µM (active)	0.324 µM (active)	14.3 µM (inactive)	0.684 µM (active)	1.85 µM (inactive)	0.532 µM (active)	0.54 µM (active)	3.58 µM (inactive)
O=C1CCCCCC1CC(Sc1ccccc1)Sc1ccccc1 (configuration not stated)	–	61.4 µM (inactive)	> 100 µM (inactive)	–	> 100 µM (inactive)	> 100 µM (inactive)	60.8 µM (inactive)	> 100 µM (inactive)	72.3 µM (inactive)	> 100 µM (inactive)	> 100 µM (inactive)	> 100 µM (inactive)	46.9 µM (inactive)	> 100 µM (inactive)	–	88.5 µM (inactive)	> 100 µM (inactive)	65.3 µM (inactive)	37.6 µM (inactive)	> 100 µM (inactive)
c1csc(-c2cc(-c3cccs3)c(-c3ccsc3)s2)c1	–	55.5 µM (inactive)	34.2 µM (inactive)	> 100 µM (inactive)	–	> 100 µM (inactive)	55.5 µM (inactive)	> 100 µM (inactive)	24.7 µM (inactive)	> 100 µM (inactive)	> 100 µM (inactive)	> 100 µM (inactive)	–	> 100 µM (inactive)	56.8 µM (inactive)	> 100 µM (inactive)	> 100 µM (inactive)	–	96.2 µM (inactive)	> 100 µM (inactive)
COC(=O)C(C(=O)C(=O)Nc1ccc([N+](=O)[O-])cc1)c1nc2cc(C)c(C)cc2nc1O (configuration not stated)	–	> 100 µM (inactive)	81.3 µM (inactive)	> 100 µM (inactive)	> 100 µM (inactive)	> 100 µM (inactive)	> 100 µM (inactive)	> 100 µM (inactive)	–	–	> 100 µM (inactive)	–	> 100 µM (inactive)	> 100 µM (inactive)	> 100 µM (inactive)	> 100 µM (inactive)	–	> 100 µM (inactive)	> 100 µM (inactive)	> 100 µM (inactive)
COc1cccc(-c2nc(-c3cnccn3)n(C/C=C/c3ccccc3)n2)c1	> 10 µM (inactive)	–	> 10 µM (inactive)	–	1.86 µM (inactive)	> 10 µM (inactive)	> 10 µM (inactive)	> 10 µM (inactive)	> 10 µM (inactive)	–	> 10 µM (inactive)	> 10 µM (inactive)	> 10 µM (inactive)	> 10 µM (inactive)	> 10 µM (inactive)	> 10 µM (inactive)	–	> 10 µM (inactive)	–	> 10 µM (inactive)
C=CCn1c2ccccc2[n+]2cc([N+](=O)[O-])ccc12	–	12.3 µM (inactive)	54.8 µM (inactive)	27.2 µM (inactive)	18.9 µM (inactive)	21.3 µM (inactive)	40.1 µM (inactive)	36.3 µM (inactive)	26.3 µM (inactive)	34.7 µM (inactive)	15.8 µM (inactive)	57 µM (inactive)	24.5 µM (inactive)	> 100 µM (inactive)	27.3 µM (inactive)	48.4 µM (inactive)	50.9 µM (inactive)	16 µM (inactive)	–	–
CCN(CC)CCC1CCCCN1CC(=O)N1c2ccccc2NC(=O)CC1C (configuration not stated)	–	> 100 µM (inactive)	> 100 µM (inactive)	> 100 µM (inactive)	> 100 µM (inactive)	> 100 µM (inactive)	> 100 µM (inactive)	> 100 µM (inactive)	> 100 µM (inactive)	> 100 µM (inactive)	> 100 µM (inactive)	–	> 100 µM (inactive)	> 100 µM (inactive)	> 100 µM (inactive)	> 100 µM (inactive)	> 100 µM (inactive)	> 100 µM (inactive)	> 100 µM (inactive)	> 100 µM (inactive)
O=C(CC(O)(C(F)(F)Cl)C(F)(F)Cl)CC(O)(C(F)(F)Cl)C(F)(F)Cl	–	1.63 µM (inactive)	1.74 µM (inactive)	1.19 µM (inactive)	0.75 µM (active)	2.17 µM (inactive)	3.04 µM (inactive)	4.03 µM (inactive)	2.14 µM (inactive)	2.05 µM (inactive)	0.483 µM (active)	2.06 µM (inactive)	1.12 µM (inactive)	2.36 µM (inactive)	4.65 µM (inactive)	0.929 µM (active)	0.515 µM (active)	1.2 µM (inactive)	0.516 µM (active)	1.5 µM (inactive)
Nc1nnnn1NC(=O)NCCCl	–	> 10 µM (inactive)	> 10 µM (inactive)	> 10 µM (inactive)	> 10 µM (inactive)	> 10 µM (inactive)	> 10 µM (inactive)	> 10 µM (inactive)	> 10 µM (inactive)	> 10 µM (inactive)	> 10 µM (inactive)	> 10 µM (inactive)	> 10 µM (inactive)	> 10 µM (inactive)	> 10 µM (inactive)	> 10 µM (inactive)	> 10 µM (inactive)	> 10 µM (inactive)	> 10 µM (inactive)	> 10 µM (inactive)
[N-]=[N+]=NC1C2CC3C4CC5CC3[C@H](C2)C(C5)C41 (some centres not stated)	–	> 100 µM (inactive)	> 100 µM (inactive)	> 100 µM (inactive)	> 100 µM (inactive)	> 100 µM (inactive)	> 100 µM (inactive)	> 100 µM (inactive)	–	–	> 100 µM (inactive)	–	> 100 µM (inactive)	> 100 µM (inactive)	> 100 µM (inactive)	> 100 µM (inactive)	–	> 100 µM (inactive)	> 100 µM (inactive)	> 100 µM (inactive)
COc1cc2c(c(OC)c1OC)-c1ccc(OC)c(=O)cc1[C@@H](NC(=O)c1ccccc1)CC2	–	< 0.01 µM (active)	0.0162 µM (active)	0.0126 µM (active)	0.0173 µM (active)	0.0146 µM (active)	0.0106 µM (active)	0.0118 µM (active)	< 0.0146 µM (active)	0.0151 µM (active)	0.016 µM (active)	0.168 µM (active)	< 0.0103 µM (active)	0.0136 µM (active)	0.0146 µM (active)	0.449 µM (active)	0.0199 µM (active)	0.0114 µM (active)	0.0608 µM (active)	0.0154 µM (active)
CCCc1cc2c(cc1O)CC[C@@H]1[C@@H]2CC[C@]2(C)[C@@H](O)CC[C@@H]12	–	18.2 µM (inactive)	16.5 µM (inactive)	–	19.1 µM (inactive)	15.2 µM (inactive)	9.12 µM (inactive)	10.5 µM (inactive)	–	17.3 µM (inactive)	13 µM (inactive)	6.32 µM (inactive)	11.8 µM (inactive)	5.82 µM (inactive)	11.7 µM (inactive)	12 µM (inactive)	–	8.32 µM (inactive)	–	13.2 µM (inactive)
CC(=O)CC(=O)Nn1c(-c2cccs2)nc2ccc(I)cc2c1=O	> 35.9 µM (inactive)	> 51.4 µM (inactive)	> 39.8 µM (inactive)	> 60.1 µM (inactive)	> 50.1 µM (inactive)	> 46.7 µM (inactive)	> 54.7 µM (inactive)	> 66.8 µM (inactive)	> 54.2 µM (inactive)	–	> 52.6 µM (inactive)	> 46.5 µM (inactive)	> 40.7 µM (inactive)	> 54.7 µM (inactive)	> 49.8 µM (inactive)	> 46.9 µM (inactive)	> 38.1 µM (inactive)	> 49.5 µM (inactive)	> 57.9 µM (inactive)	> 47.3 µM (inactive)
